What is called EC50 is the concentration at which the effect is half-maximal. By Emax is commonly meant the size of the effect at its maximum, as opposed to the concentration needed. In general, IC50 refers to the point on the concentration scale where inhibition reaches its midpoint. Low readings indicate greater potency, high ones weaker potency.

The test system of test [1] is CA1 pyramidal neurons.
The target in test [2] is mouse native M1Rs (Mus musculus, UniProt P12657). As to the kind of experiment: biochemical. How it is done: (§1) All procedures were performed at 4°C. […] Homogenate was centrifuged at 1000×g for 10 min and supernatant collected, the pellet was rehomogenized and centrifuged again, as above, and supernatant pooled and centrifuged at 11 000×g for 20 min. The resulting pellet was suspended in a final storage buffer (10 mM HEPES, 1 mM EGTA, 1 mM MgCl2, 1 mM DTT; pH 7.4) and centrifuged at 27 000×g for 20 min. Supernatant was removed and the final pellet suspended in 2 mL of final storage buffer. Protein concentration was measured using the Bradford method ([Bradford 1976]) (Coomassie Plus, Bio-Rad protein assay kit) with bovine gamma globulin standards. Samples were then aliquoted and stored at −80°C.
mouse native M1Rs, sequence (P12657 whole entry): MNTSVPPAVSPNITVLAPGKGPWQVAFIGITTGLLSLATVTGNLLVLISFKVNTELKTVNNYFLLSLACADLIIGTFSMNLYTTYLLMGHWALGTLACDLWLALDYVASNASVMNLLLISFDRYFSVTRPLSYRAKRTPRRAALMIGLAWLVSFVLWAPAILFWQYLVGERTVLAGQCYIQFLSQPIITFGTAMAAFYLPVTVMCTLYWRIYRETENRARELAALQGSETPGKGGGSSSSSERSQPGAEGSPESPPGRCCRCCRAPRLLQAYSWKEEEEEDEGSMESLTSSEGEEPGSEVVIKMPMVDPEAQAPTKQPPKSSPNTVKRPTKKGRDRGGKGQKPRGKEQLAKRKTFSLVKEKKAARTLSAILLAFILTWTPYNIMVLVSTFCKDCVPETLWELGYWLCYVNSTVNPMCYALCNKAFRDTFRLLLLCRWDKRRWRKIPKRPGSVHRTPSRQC
GTPɣ[^35S] binding in mouse WT and M1 KO hippocampal membranes were determined in triplicate using an antibody capture technique in 96-well plate format ([DeLapp et al. 1999]). Membrane aliquots (15 µg/well) from WT or M1 KO C57BL6/NTac mice were incubated with test compound and GTPɣ[^35S] (500 pM/well) for 30 min. […] Plates were left to incubate for 3 h and then centrifuged for 10 min at 2000 rpm. Plates were counted for 1 min/well using a Wallac MicroBeta Trilux scintillation counter (PerkinElmer). All incubations took place at room temperature in GTP-binding assay buffer (In mM, 20 HEPES, 100 NaCl, 5 MgCl2; pH 7.4).
(§2) For data analysis, relative EC50 and IC50 values were calculated using a 4-parameter logistic curve (GraphPad Prism v6).

For test [3], the system named is CA1 pyramidal neurons (M1R KO). The conditions noted are these: 7 µM, M1R KO mice.
Test [4] deals with 5-HT2B receptors. The conditions noted are these: ref Melancon et al. 2013; cited from earlier work.
For test [5], the system named is dopamine D2 receptors. The note with it: ref Melancon et al. 2013; cited from earlier work.
The target of test [6] is human M1Rs (Homo sapiens, UniProt P11229). As to the kind of experiment: cell-based.
human M1Rs, sequence (P11229 whole entry): as the sequence (P12657 whole entry) above, with V5A, S254T, K320R, G337A, V413I counted along it
Experimental: CHO cells stably expressing recombinant human M1, M3, and M5 Rs and AV12 cells stably expressing Gα15 and recombinant human M2 or M4 Rs were cultured in DMEM with high glucose and pyridoxine hydrochloride supplemented with 5–10% heat-inactivated fetal bovine serum, 10–20 mM HEPES, 1 mM L-glutamine, 1% penicillin/streptomycin solution and selection agents, 0.5 mg/mL geneticin, or 0.3 µg/mL puromycin. Confluent cultures were passaged weekly and cells harvested 24 h prior to assay using 0.25% trypsin–EDTA and plated at a density of 40 000–50 000 cells per well in tissue culture treated, poly-D-lysine-coated 96-well black-walled, clear bottom plates (Corning or Becton-Dickinson). For FLIPR (FLIPR-tetra, Molecular Devices) assays, media was removed and cells were incubated with 5 µM Fluo-4-AM/0.05% pluronic F-127 (Invitrogen) in a HEPES-buffered salt solution (HEPES-HBSS; composition, in mM; 135 NaCl, 5 KCl, 1.3 CaCl2, 0.5 MgCl2, 0.4 MgSO4, 0.4 KH2PO4, 4.2 NaHCO3, 0.3 Na2HPO4, 5.6 glucose, 20 HEPES, +2.5 mM probenecid for CHO cell lines, pH 7.5 adjusted with 5 M NaOH) for 1 h at room temperature, in the dark, before the media was removed and replaced with HEPES-buffered salt solution in the absence of Fluo-4. […]
The test system of test [7] is CA1 pyramidal neurons (M1R KO). The conditions noted are these: 7 µM, M1R KO mice. This is another data set of the same source.
For test [8], the target named is T1, human M5 receptors (Homo sapiens, UniProt P08912). The test is described as follows: cell-based. As to the method: (§3) CHO cells stably expressing recombinant human M1, M3, and M5 Rs and AV12 cells stably expressing Gα15 and recombinant human M2 or M4 Rs were cultured in DMEM with high glucose and pyridoxine hydrochloride supplemented with 5–10% heat-inactivated fetal bovine serum, 10–20 mM HEPES, 1 mM L-glutamine, 1% penicillin/streptomycin solution and selection agents, 0.5 mg/mL geneticin, or 0.3 µg/mL puromycin. Confluent cultures were passaged weekly and cells harvested 24 h prior to assay using 0.25% trypsin–EDTA and plated at a density of 40 000–50 000 cells per well in tissue culture treated, poly-D-lysine-coated 96-well black-walled, clear bottom plates (Corning or Becton-Dickinson). For FLIPR (FLIPR-tetra, Molecular Devices) assays, media was removed and cells were incubated with 5 µM Fluo-4-AM/0.05% pluronic F-127 (Invitrogen) in a HEPES-buffered salt solution (HEPES-HBSS; composition, in mM; 135 NaCl, 5 KCl, 1.3 CaCl2, 0.5 MgCl2, 0.4 MgSO4, 0.4 KH2PO4, 4.2 NaHCO3, 0.3 Na2HPO4, 5.6 glucose, 20 HEPES, +2.5 mM probenecid for CHO cell lines, pH 7.5 adjusted with 5 M NaOH) for 1 h at room temperature, in the dark, before the media was removed and replaced with HEPES-buffered salt solution in the absence of Fluo-4. Probenecid was included to optimize dye loading in CHO cell lines. Although probenecid has been reported to interact and activate some TRP channels {McClenaghan, 2012 #2996}, there are no reports of interactions with mAChRs or nontransfected CHO cells. Plates were then transferred to FLIPR for experiments, which were also conducted at room temperature.
T1 sequence (P08912 whole entry): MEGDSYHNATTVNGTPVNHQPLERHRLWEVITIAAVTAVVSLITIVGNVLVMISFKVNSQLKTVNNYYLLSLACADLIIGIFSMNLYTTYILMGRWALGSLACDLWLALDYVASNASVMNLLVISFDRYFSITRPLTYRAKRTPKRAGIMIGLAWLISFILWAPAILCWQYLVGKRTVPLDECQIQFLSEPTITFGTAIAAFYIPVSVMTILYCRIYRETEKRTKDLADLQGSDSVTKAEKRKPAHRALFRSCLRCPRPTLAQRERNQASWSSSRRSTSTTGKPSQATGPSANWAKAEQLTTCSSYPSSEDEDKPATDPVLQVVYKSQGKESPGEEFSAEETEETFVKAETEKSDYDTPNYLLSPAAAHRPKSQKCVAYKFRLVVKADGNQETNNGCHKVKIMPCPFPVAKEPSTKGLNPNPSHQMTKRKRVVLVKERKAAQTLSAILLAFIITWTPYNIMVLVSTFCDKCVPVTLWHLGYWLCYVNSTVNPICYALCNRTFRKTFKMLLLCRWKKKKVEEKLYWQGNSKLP
as §2

Test [9] addresses T2, human M4 receptors (Homo sapiens, UniProt P08173). The test is described as follows: cell-based. As to the method:
as §3, §2

Test [10] addresses T3, human M2 receptors (Homo sapiens, UniProt P08172). As to the kind of experiment: cell-based. How it is done:
as §3, §2

In test [11] the target is T1, human M5 receptors. The note with it: over the concentration range tested. As to the method: as §3, §2
The target of test [12] is T2, human M4 receptors. The note with it: over the concentration range tested. How it is done: as §3, §2
For test [13], the target named is human M3 receptors (Homo sapiens, UniProt P20309). The note with it: over the concentration range tested. As to the method:
as §3, §2

Test [14] concerns the target T3, human M2 receptors. The note with it: over the concentration range tested. As to the method: as §3, §2
Test [15] relates to CA1 pyramidal neurons. The conditions noted are these: 7 µM, WT mice 6-9 weeks.
The subject of test [16] is CA1 pyramidal neurons. The conditions noted are these: 7 µM, WT mice, NBQX + L-689,560, -55 mV.
The subject of test [17] is Gαq activation in M1 KO hippocampal membranes. As to the method:
as §1
GTPɣ[^35S] binding in mouse WT and M1 KO hippocampal membranes were determined in triplicate using an antibody capture technique in 96-well plate format ([DeLapp et al. 1999]). Membrane aliquots (15 µg/well) from WT or M1 KO C57BL6/NTac mice were incubated with test compound and GTPɣ[^35S] (500 pM/well) for 30 min. […] Plates were left to incubate for 3 h and then centrifuged for 10 min at 2000 rpm. Plates were counted for 1 min/well using a Wallac MicroBeta Trilux scintillation counter (PerkinElmer). […]
as §2

The test system of test [18] is cognition. The note with it: clinical study; ref Nathan et al. 2013; cited from earlier work.
Test [19] concerns CA1 pyramidal cell firing. The note with it: studies not reported here; reversed by scopolamine.

T2 sequence (P08173 whole entry): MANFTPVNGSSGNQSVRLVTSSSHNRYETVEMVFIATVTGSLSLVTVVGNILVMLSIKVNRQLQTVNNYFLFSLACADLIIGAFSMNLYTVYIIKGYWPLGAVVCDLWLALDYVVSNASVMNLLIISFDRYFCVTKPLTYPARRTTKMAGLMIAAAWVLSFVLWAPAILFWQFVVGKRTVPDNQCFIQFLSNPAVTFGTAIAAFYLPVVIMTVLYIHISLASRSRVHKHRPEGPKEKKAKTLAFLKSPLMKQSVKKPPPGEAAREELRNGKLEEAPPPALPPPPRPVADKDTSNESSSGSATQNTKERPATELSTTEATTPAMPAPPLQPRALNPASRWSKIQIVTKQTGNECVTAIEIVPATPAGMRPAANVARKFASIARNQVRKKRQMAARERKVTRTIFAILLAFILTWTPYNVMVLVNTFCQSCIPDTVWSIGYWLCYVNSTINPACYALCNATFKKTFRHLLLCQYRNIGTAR
T3 sequence (P08172 whole entry): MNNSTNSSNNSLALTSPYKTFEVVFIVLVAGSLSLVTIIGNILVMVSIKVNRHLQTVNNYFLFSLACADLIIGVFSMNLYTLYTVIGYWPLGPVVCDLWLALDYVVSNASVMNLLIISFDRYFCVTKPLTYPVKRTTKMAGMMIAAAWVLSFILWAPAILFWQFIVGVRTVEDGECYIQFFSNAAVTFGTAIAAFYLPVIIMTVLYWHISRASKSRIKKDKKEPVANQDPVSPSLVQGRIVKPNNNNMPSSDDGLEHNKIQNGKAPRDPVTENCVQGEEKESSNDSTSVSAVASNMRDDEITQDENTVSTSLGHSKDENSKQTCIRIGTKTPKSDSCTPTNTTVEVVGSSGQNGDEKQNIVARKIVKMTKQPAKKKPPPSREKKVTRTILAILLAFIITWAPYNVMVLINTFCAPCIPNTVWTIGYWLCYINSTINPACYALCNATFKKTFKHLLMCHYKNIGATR
human M3 receptors, sequence (P20309 whole entry): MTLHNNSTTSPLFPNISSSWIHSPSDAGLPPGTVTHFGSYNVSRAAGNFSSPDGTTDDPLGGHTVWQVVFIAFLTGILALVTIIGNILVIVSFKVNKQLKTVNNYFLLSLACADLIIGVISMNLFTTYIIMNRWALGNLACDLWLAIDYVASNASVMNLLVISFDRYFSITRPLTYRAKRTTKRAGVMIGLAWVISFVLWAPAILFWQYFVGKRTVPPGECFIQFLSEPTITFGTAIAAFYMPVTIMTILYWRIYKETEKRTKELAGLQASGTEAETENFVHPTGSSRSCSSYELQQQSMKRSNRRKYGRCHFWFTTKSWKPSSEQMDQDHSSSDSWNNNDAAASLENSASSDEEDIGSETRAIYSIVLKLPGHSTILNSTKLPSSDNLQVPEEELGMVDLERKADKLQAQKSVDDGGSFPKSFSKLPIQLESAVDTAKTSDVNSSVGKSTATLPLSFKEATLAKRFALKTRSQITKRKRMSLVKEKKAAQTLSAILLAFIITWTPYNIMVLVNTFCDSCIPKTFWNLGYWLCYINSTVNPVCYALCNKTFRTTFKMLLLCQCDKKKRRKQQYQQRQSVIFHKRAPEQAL

As to `CCCCC1CCN(CCCN2C(=O)CCc3ccccc32)CC1` [77-LH-28-1, 1-[3-(4-butyl-1-piperidinyl)propyl]-3,4-dihydro-2[1H]-quinolinone], the EPSP amplitude in test [1] is 194.2 ± 42.0%; in test [3] it was 118.5 ± 24.7%. In addition, the EC50 was found to be 156 nM in [2] and 22.2 nM in test [6]. Moreover, the maximum response (Emax) in test [2] (read-out: Emax for Gαq activation) came to 92 ± 2%; in [6] (read-out: efficacy (Emax)), 98 ± 2%. In test [4], the “cross-reactivity at 5-HT2B receptors” value is “some cross-reactivity”. Besides, the “cross-reactivity at dopamine D2 receptors” value in test [5] was “some cross-reactivity”. Besides, the figures for the IPSP amplitude in test [7] and in test [16] were 64.0 ± 13.3% and 39.1 ± 9.2%, respectively. Also, the figures for the IC50 in test [8], in test [9] and in test [10] were 2220 nM, 2030 nM and 1190 nM, respectively. In test [11], the “agonism of M5 receptors” value is “No agonism”. Also, in test [12], the “agonism of M4 receptors” value is “No agonism”. Besides, in test [13], the “agonism of M3 receptors” value is listed as “No agonism”. The “agonism of M2 receptors” value in test [14] is listed as “No agonism”. The “depolarization of CA1 pyramidal neurons” value in [15] is on record as 10.4 ± 3.9 mV. Further, the “increase in input resistance” value in test [15] is recorded as 86 ± 51 MΩ. In addition, the “Gαq activation response in M1R KO mice” value in test [17] is on record as “no response”.

As for `Cc1cc(F)c2[nH]c(=O)n(C3CCN(C4CCOCC4)CC3)c2c1` [GSK1034702], in test [18], the effects on cognition result is “positive effects on cognition”. Besides, in test [19], the “CA1 pyramidal cell firing in vivo” value is “increase in CA1 pyramidal cell firing”.

Consider oxotremorine M, for which the “Emax for Gαq activation” value in test [2] (WT hippocampus, percentage of maximal signal with 100 µM oxo-M) stood at 99 ± 5%. The “Gαq activation response in M1R KO mice” value in [17] is listed as “No response”.

These data come from PMC4677984, “Activation of Muscarinic M1 Acetylcholine Receptors Induces Long-Term Potentiation in the Hippocampus” (Cerebral Cortex (New York, NY), 2015).
